What all share (test): NCI-60 cell line screen, 48 h
Assay [1] has as its system SNB-19 CNS.
Assay [2] relates to HCC-2998 colon.
In assay [3] the test system is UACC-62 melanoma.
Assay [4] relates to RPMI-8226 leukemia.
Assay [5] has as its system UACC-257 melanoma.
Assay [6] concerns SK-MEL-2 melanoma.
Assay [7] has as its system SNB-75 CNS.
Assay [8] relates to EKVX NSCLC.
Assay [9] concerns CCRF-CEM leukemia.
Assay [10] deals with SF-268 CNS.
Assay [11] deals with SR leukemia.
The test system of assay [12] is OVCAR-4 ovarian.
In assay [13] the test system is CAKI-1 renal.
For assay [14], the system named is HOP-92 NSCLC.
Assay [15] deals with RXF 393 renal.

Our source for the TGI values is PubChem BioAssay (NCI).

The structures appear in SMILES notation.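 Tested at 5 concentrations; 48 h exposure; 96-well plates; endpoints linearly interpolated, else capped at highest concentration. TGI is the concentration that stops growth completely.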

`O=C1c2ccccc2C(=O)N1C/C=N/NS(=O)(=O)c1ccc(Cl)cc1`: the TGI in assay [1], in assay [2], in assay [3], in assay [4], in assay [5] and in [6] was > 100 µM each time. The TGI in assay [7], in assay [8], in assay [9], in assay [10], in assay [11] and in assay [12] was > 100 µM in each case. Also, the TGI in [13] was > 100 µM.
Turning to `CC(=O)C1CC2(c3ccccc3)C(=O)c3ccccc3N2O1` (stereo not drawn), the TGI in [1], in assay [2], in assay [3], in assay [4], in [5] and in [7] was > 100 µM each time. In addition, the TGI in assay [14], in assay [15], in assay [8], in assay [9], in assay [10] and in assay [11] was > 100 µM throughout. In addition, in assay [12], the TGI was > 100 µM.
For the compound `O=C(Cc1ccccc1)NN1C(=O)C(Cl)C1c1cc(Br)cc(Br)c1O` (stereo not drawn), the TGI in [1] amounted to 38.9 µM; in assay [2] it was 31.1 µM; in assay [3] it was 61.6 µM; in assay [4], 29.1 µM; in [5] it was 39.4 µM; in assay [6], 36.6 µM. The TGI in assay [7] was 56.1 µM; in assay [15] it was 40.4 µM; in assay [8] it was 68.1 µM; in assay [9] it was 24.1 µM; in assay [10], 43.3 µM; in assay [11], 13.1 µM. Also, the TGI is 80.4 µM in assay [12] and 78.5 µM in assay [13].
Take `CCN(CC)CCNC(=O)c1ccccc1Nc1c(Cl)cccc1Cl`: the TGI in [1] was determined as 30.9 µM; in [2] it was 21 µM; in assay [3] it was 32.1 µM; in assay [4] it was 30.2 µM; in assay [5], 29 µM; in [7], 23.8 µM. Further, the TGI in assay [15] was found to be 27.9 µM; in assay [8], 26.6 µM; in assay [9], 35.2 µM; in [10], 34.7 µM; in assay [11], 34.2 µM; in assay [12], 30.2 µM.
`COc1ccccc1OCc1nnc(SCC(=O)O)n1-c1ccccc1`: the TGI in assay [2], in assay [3], in [4], in assay [5], in assay [6] and in assay [7] was > 100 µM each time. Moreover, the TGI in [14], in [8], in [9], in assay [10], in [11] and in assay [12] was > 100 µM throughout.
On to `Cc1cc(Cl)ccc1N1C(=O)C(=O)C(c2nc3ccccc3s2)/C(=N\NC(=O)c2ccccc2O)C1=O` (stereo not drawn), for which the TGI in [1], in [2], in [3], in assay [4], in assay [5] and in assay [6] was > 100 µM in each case. In addition, the TGI in assay [7], in assay [14], in [15], in assay [8], in assay [9] and in assay [10] was > 100 µM throughout. Moreover, the TGI in assay [11], in assay [12] and in assay [13] was > 100 µM in each case.
Regarding `CN(C)CC1CCC(CN(C)C)C1=NO` (stereo not drawn), the TGI in assay [2] was > 100 µM; in [3] it was > 100 µM; in assay [4], > 100 µM; in assay [5], > 100 µM; in assay [7], > 10 µM; in assay [14] it was > 100 µM. The TGI in assay [15], in assay [8], in assay [9], in [10], in [11] and in assay [12] was > 100 µM in each case. In [13], the TGI is > 100 µM.
In the case of `CN1C(=O)NC2(O)c3ccccc3C(=O)C12O` (stereo not drawn), the TGI in assay [1], in assay [3], in assay [4], in [5], in [6] and in assay [7] was > 100 µM throughout. Moreover, the TGI in [14], in assay [8], in [9], in [10], in assay [11] and in assay [12] was > 100 µM each time. Also, the TGI in assay [13] was > 100 µM.
Turning to `CCC1N2CCCCC2[C@@H]2c3[nH]c4ccccc4c3CCN12` (stereo partly drawn), the TGI in assay [1], in assay [2], in assay [3], in [4], in assay [5] and in [6] was > 100 µM in each case. Also, the TGI in assay [7], in assay [14], in assay [15], in [8], in assay [9] and in assay [10] was > 100 µM in each case. The TGI in [12] and in [13] was > 100 µM in each case.
As for `CSc1ccc2c(cc1=O)C(NC(=O)c1cc(O)c(OC(=O)O)c(O)c1)CCc1cc(O)c(O)c(O)c1-2` (stereo not drawn), the TGI in assay [1] is > 90 µM; in [2], > 90 µM; in assay [3], 30.6 µM; in [4] it was 39.8 µM; in [5], > 90 µM; in assay [6] it was > 90 µM. Also, the TGI in assay [7] was > 90 µM; in [14] it was 51.4 µM; in assay [15], > 90 µM; in assay [8], 38.8 µM; in assay [9], > 90 µM; in assay [10], 43 µM. In addition, the TGI worked out at 40.9 µM in assay [12] and 41.9 µM in assay [13].
Consider `CCC(=O)NCC1(c2c[nH]c3ccccc23)SCCS1`, for which the TGI in assay [1], in assay [2], in [3], in [4], in [5] and in [6] was > 100 µM in each case. Further, the TGI in [7], in assay [14], in assay [8], in assay [9], in [10] and in assay [11] was > 100 µM throughout. In addition, the TGI in assay [12] and in assay [13] was > 100 µM each time.
Regarding `N#CC(C(=N/NC(N)=S)/C(=N\NC(N)=S)C(C#N)c1ccccc1)c1ccccc1` (stereo not drawn), the TGI in assay [1], in [2], in assay [3], in assay [4], in assay [5] and in assay [6] was > 10 µM throughout. In addition, the TGI in [7], in assay [14], in [15], in assay [8], in assay [9] and in assay [10] was > 10 µM in each case. In addition, the TGI in assay [12] was > 10 µM.
With `CCOC(=O)NC(=O)c1cn(-c2ccc(CCOC(=O)CCCCCCCCC(=O)OCCc3ccc(-n4cc(C(=O)NC(=O)OCC)c(=O)[nH]c4=O)cc3)cc2)c(=O)[nH]c1=O`, the TGI in [1], in [2], in assay [3], in assay [4], in assay [5] and in assay [6] was > 100 µM throughout. The TGI was 88.7 µM in [14]; > 100 µM in assay [15]; > 100 µM in [8]; > 100 µM in assay [9]; > 100 µM in assay [10]; > 100 µM in assay [11]. In assay [12], the TGI is > 100 µM.
As to `C#Cc1cccc(N2C(=O)CC(=P(c3ccccc3)(c3ccccc3)c3ccccc3)C2=O)c1`, the TGI is > 100 µM in assay [1]; > 100 µM in assay [2]; > 100 µM in assay [3]; 63.2 µM in [4]; > 100 µM in [5]; > 100 µM in assay [6]. Further, the TGI in assay [7], in assay [8], in [9], in assay [10], in assay [11] and in assay [12] was > 100 µM throughout. For the same compound, in assay [13], the TGI was > 100 µM.
On to `COC(=O)C(=O)C(C(=O)C(=O)Nc1ccc([N+](=O)[O-])cc1C#N)c1nc2ccc([N+](=O)[O-])cc2[nH]c1=O` (stereo not drawn), for which the TGI in assay [1], in assay [3], in assay [4], in [5], in [6] and in assay [7] was > 100 µM in each case. In addition, the TGI in assay [14], in assay [15], in assay [8], in assay [9], in assay [10] and in assay [11] was > 100 µM each time. Moreover, the TGI in assay [12] and in assay [13] was > 100 µM in each case.
`O=C1c2ccccc2N2OC3C4CCC(C4)C3C12c1ccccc1` (stereo not drawn): the TGI in [1], in assay [2], in [3], in assay [4], in assay [5] and in assay [7] was > 100 µM in each case. Also, the TGI in assay [14] is > 100 µM; in [15], 77.8 µM; in [8], > 100 µM; in assay [9], > 100 µM; in assay [10] it was > 100 µM; in assay [11], > 100 µM. Further, the TGI in [12] is > 100 µM.
As to `C/C(CC(=O)Nc1ccc(C)cc1)=N\NC(N)=S`, the TGI in [2], in [3], in [4], in assay [5], in assay [6] and in assay [7] was > 100 µM each time. Besides, the TGI in assay [14], in [15], in assay [8], in assay [9] and in assay [10] was > 100 µM throughout.
As to `COc1cc2c(cc1OC)[C@]1(O)C(=O)c3ccc4c(c3O[C@@H]1CO2)C[C@H](C(C)(C)O)O4`, the TGI in [1], in assay [2], in assay [3], in assay [4], in [5] and in [6] was > 100 µM in each case. For the same compound, the TGI in assay [7], in assay [14], in [15], in assay [8] and in [9] was > 100 µM each time.
As for `COc1cc([C@@H]2c3cc4c(cc3[C@@H](NC(=O)c3ccc(C(C)=O)cc3)C3COC(=O)[C@@H]32)OCO4)cc(OC)c1O` (stereo partly drawn), the TGI in assay [1] was > 100 µM; in assay [2] it was 7.91 µM; in [3], 2.1 µM; in assay [4], 14.5 µM; in assay [5], 32.2 µM; in [6] it was 8.03 µM. Moreover, the TGI in assay [7] is 4.99 µM; in assay [14], 27 µM; in [15] it was 72.1 µM; in assay [8], 17.6 µM; in [9], > 100 µM; in assay [10], > 100 µM. The TGI in assay [12] is > 100 µM; in [13], 20.3 µM.
On to `O=c1[nH]nc2c3n[nH]c(=O)n3c3ccccc3n12`, for which the TGI in assay [1], in assay [2], in assay [3], in assay [4], in [5] and in [6] was > 100 µM each time. Further, the TGI in assay [7], in assay [14], in [15], in assay [8], in assay [9] and in assay [10] was > 100 µM in each case. Further, the TGI in assay [12] and in assay [13] was > 100 µM throughout.
